Results as given in patent publication US9469645B2, “Compounds and compositions for the treatment of parasitic diseases” (Novartis AG, priority 2009, dated 2016).

Each compound was assayed on 3D7 P. falciparum strain (assay: parasite proliferation assay in infected red blood cells (SYBR Green I)). Conditions: Plasmodium falciparum, 3D7, Erythrocyte, 3D7 strain; read-out: EC50 3D7 strain.
Assay type: cell-based, Plasmodium falciparum
From the text: (§1) Compounds of the invention can be assayed to measure their capacity to inhibit proliferation of parasitemia in infected red blood cells. The proliferation is quantified by the addition of SYBR Green I (INVITROGEN)® dye which has a high affinity for double stranded DNA.
The following assay illustrates the invention without in any way limiting the scope of the invention. This parasite proliferation assay measures the increase in parasite DNA content using a DNA intercalating dye, SYBR Green®.
3D7 P. falciparum strain is grown in complete culturing media until parasitemia reaches 3% to 8% with O+ human erythrocytes. 20 μl of screening media is dispensed into 384 well assay plates. […] 10 μl of lysis buffer (saponin, triton-X, EDTA) containing a 10× solution of SYBR Green I® in RPMI media is dispensed into the plates. The plates are lidded and kept at room temperature overnight for the lysis of the infected red blood cells.

First: CC(C)(N)C(=O)N1CCn2c(nc(-c3cccc(F)c3)c2Nc2ccc(F)c(C#N)c2)C1 [Compound 353]
Second: CC(C)(N)C(=O)N1CCn2c(nc(-c3ccc(F)cc3)c2Nc2ccc(F)c(Cl)c2)C1 [Compound 492]
The EC50 of the first is 4.2-fold higher: 210 nM for the first, 50 nM for the second. The second is the more potent here.

Compared with `O=C(C(Nc1ccccc1)c1ccccc1)N1CCn2c(nc(-c3ccc(F)cc3)c2Nc2ccc(Cl)c(F)c2)C1` (centres unmarked) [Compound 332], `O=C([C@@H](O)Cc1ccccc1)N1CCn2c(nc(-c3ccc(F)cc3)c2Nc2ccc(Cl)c(F)c2)C1` [Compound 334] is 21-fold lower in EC50: 1040 nM for the first, 50 nM for the second.

First: CN(c1ccc(Cl)c(F)c1)c1c(-c2ccc(F)cc2)nc2n1CCN(C(=O)CN)C2 [Compound 293]
Second: NCC(=O)N1CCn2c(nc(-c3ccc(F)cc3)c2Nc2ccc(F)c(Cl)c2)C1 [Compound 78]
The EC50 of the first is 2-fold higher: 20 nM for the first, 10 nM for the second.

Compared with `O=C(COc1ccccc1)N1CCn2c(nc(-c3ccc(F)cc3)c2Nc2ccc(Cl)c(F)c2)C1` [Compound 336], `O=C(Cc1ccccc1OC(F)(F)F)N1CCn2c(nc(-c3ccc(F)cc3)c2Nc2ccc(Cl)c(F)c2)C1` [Compound 333] is 28-fold higher in EC50: 40 nM for the first, 1110 nM for the second.

`O=C([C@H]1CCCN1)N1CCn2c(nc(-c3ccc(F)cc3)c2Nc2ccc(Cl)c(F)c2)C1` [Compound 340] and `O=C([C@@H]1CCCN1)N1CCn2c(nc(-c3ccc(F)cc3)c2Nc2ccc(Cl)c(F)c2)C1` [Compound 338] are within 1.5-fold of each other in EC50: 200 nM for the first, 190 nM for the second.

`N[C@@H](CC1CC1)C(=O)N1CCn2c(nc(-c3ccc(F)cc3)c2Nc2ccc(F)cc2)C1` [Compound 466] and `Cc1ccc(Nc2c(-c3ccc(F)cc3)nc3n2CCN(C(=O)[C@@H](N)C(C)C)C3)cc1` [Compound 169] are within 1.5-fold of each other in EC50: 30 nM for the first, 40 nM for the second.

Going from `Cc1ccc(Nc2c(-c3ccc(F)cc3)nc3n2CCN(C(=O)[C@H](O)Cc2ccccc2)C3)cc1` [Compound 109] to `Cc1ccc(Nc2c(-c3ccc(F)cc3)nc3n2CCN(C(=O)C(C)(O)c2ccccc2)C3)cc1` (centres unmarked) [Compound 111], the EC50 falls from 40 nM to 20 nM (2-fold).

First: Fc1ccc(-c2nc3n(c2Nc2ccc(F)c(F)c2)CCNC3)cc1 [Compound 331, N-(3,4-difluorophenyl)-2-(4-fluorophenyl)-5,6,7,8-tetrahydroimidazo[1,2-a]pyrazin-3-amine]
Second: Fc1ccc(-c2nc3n(c2Nc2ccc(F)c(Cl)c2)CCNC3)cc1 [Compound 447]
The EC50 of the first is 1.6-fold lower: 140 nM for the first, 230 nM for the second. The first is the more potent here.

First: Cc1ccc(Nc2c(-c3cc(F)ccc3F)nc3n2CCNC3)cc1 [Compound 330]
Second: Cc1ccc(Nc2c(-c3ccc(F)cc3)nc3n2CCN(C(=O)CCO)C3)cc1 [Compound 103]
The EC50 of the first is 4.4-fold higher: 4470 nM for the first, 1020 nM for the second. The second is the more potent here.

Compared with `CCCCOCCOCC(=O)N1CCn2c(nc(-c3ccc(F)cc3)c2Nc2ccc(C)cc2)C1` [Compound 349], `COCCOCC(=O)N1CCn2c(nc(-c3ccc(F)cc3)c2Nc2ccc(C)cc2)C1` [Compound 351] is 6-fold lower in EC50: 7480 nM for the first, 1240 nM for the second.

`Cc1ccc(Nc2c(-c3ccc(F)cc3)nc3n2CCN(C(=O)CC(C)O)C3)cc1` (centres unmarked) [Compound 108] and `CCOCC(=O)N1CCn2c(nc(-c3ccc(F)cc3)c2Nc2ccc(C)cc2)C1` [Compound 350] are within 1.5-fold of each other in EC50: 960 nM for the first, 660 nM for the second.

Going from `Cc1ccc(Nc2c(-c3ccc(F)cc3)nc3n2CCN(C(=O)C(O)c2ccc(O)cc2)C3)cc1` (centres unmarked) [Compound 130] to `Cc1ccc(Nc2c(-c3ccc(F)cc3)nc3n2CCN(C(=O)C(O)c2cc(F)cc(F)c2)C3)cc1` (centres unmarked) [Compound 123], the EC50 rises from 10 nM to 30 nM (3-fold).

Compared with `Cc1ccc(Sc2c(-c3ccc(F)cc3)nc3n2CCN(C(=O)CN)C3(C)C)cc1` [Compound 713, 2-amino-1-(2-(4-fluorophenyl)-8,8-dimethyl-3-(p-tolylthio)-5,6-dihydroimidazo[1,2-a]pyrazin-7(8H)-yl)ethanone], `Cc1ccc([S+]([O-])c2c(-c3ccc(F)cc3)nc3n2CCN(C(=O)CN)C3(C)C)cc1` (centres unmarked) [Compound 721, 2-amino-1-(2-(4-fluorophenyl)-8,8-dimethyl-3-(p-tolylsulfinyl)-5,6-dihydroimidazo[1,2-a]pyrazin-7 (8H)-yl)ethanone] is 5.2-fold higher in EC50: 8 nM for the first, 42 nM for the second.

`NC(CC(F)(F)F)C(=O)N1CCn2c(nc(-c3ccc(F)cc3)c2Nc2ccc(Cl)c(F)c2)C1` (centres unmarked) [Compound 348] and `NC(C(=O)N1CCn2c(nc(-c3ccc(F)cc3)c2Nc2ccc(Cl)c(F)c2)C1)C(F)(F)F` (centres unmarked) [Compound 194] are the same in EC50: 50 nM for the first, 50 nM for the second.

`CC[C@H](C)[C@H](N)C(=O)N1CCn2c(nc(-c3ccc(F)cc3)c2Nc2ccc(Cl)c(F)c2)C1` [Compound 317] and `CC[C@H](N)C(=O)N1CCn2c(nc(-c3ccc(F)cc3)c2Nc2ccc(Cl)c(F)c2)C1` [Compound 393] are the same in EC50: 20 nM for the first, 20 nM for the second.

Compared with `Cc1ccc(Nc2c(-c3ccc(F)cc3)nc3n2CC(C)N(C(=O)CN)C3)cc1` (centres unmarked) [Compound 352], `CO[C@@H](C)C(=O)N1CCn2c(nc(-c3ccc(F)cc3)c2Nc2ccc(C)cc2)C1` [Compound 198] is 140-fold higher in EC50: 10 nM for the first, 1360 nM for the second. The first is the more potent here.

Compared with `N[C@H](CC(=O)N1CCn2c(nc(-c3ccc(F)cc3)c2Nc2ccc(Cl)c(F)c2)C1)Cc1ccc(Br)cc1` [Compound 344], `Cc1ccc(C[C@H](N)C(=O)N2CCn3c(nc(-c4ccc(F)cc4)c3Nc3ccc(Cl)c(F)c3)C2)cc1` [Compound 341] is 21-fold lower in EC50: 210 nM for the first, 10 nM for the second. The second is the more potent here.

`O=C(C1NCc2ccccc21)N1CCn2c(nc(-c3ccc(F)cc3)c2Nc2ccc(Cl)c(F)c2)C1` (centres unmarked) [Compound 342] and `O=C([C@H]1Cc2ccccc2CN1)N1CCn2c(nc(-c3ccc(F)cc3)c2Nc2ccc(Cl)c(F)c2)C1` [Compound 347] are within 1.5-fold of each other in EC50: 5240 nM for the first, 5920 nM for the second.

Going from `O=C(CN1CCC(C(F)(F)F)CC1)N1CCn2c(nc(-c3ccc(F)cc3)c2Nc2ccc(F)cc2)C1` [Compound 61] to `NC(CC(=O)N1CCn2c(nc(-c3ccc(F)cc3)c2Nc2ccc(Cl)c(F)c2)C1)C(F)(F)F` (centres unmarked) [Compound 339], the EC50 falls from 9240 nM to 520 nM (18-fold). The second is the more potent here.

Going from `Cc1ccc(Nc2c(-c3ccc(F)cc3)nc3n2CCN(C(=O)C(C)(C)C(O)c2ccc(C)cc2)C3)cc1` (centres unmarked) [Compound 119] to `CCCCC(=O)OC(C(=O)N1CCn2c(nc(-c3ccc(F)cc3)c2Nc2ccc(C)cc2)C1)c1ccccc1` (centres unmarked) [Compound 270], the EC50 falls from 4740 nM to 50 nM (95-fold).

First: CC(C)C[C@H](N)C(=O)N1CCn2c(nc(-c3ccc(F)cc3)c2Nc2ccc(Cl)c(F)c2)C1 [Compound 322]
Second: COc1ccc(CSC[C@@H](N)C(=O)N2CCn3c(nc(-c4ccc(F)cc4)c3Nc3ccc(Cl)c(F)c3)C2)cc1 [Compound 346]
The EC50 of the first is lower: 40 nM for the first, greater than 8800 nM for the second. The first is the more potent here.

First: O=C1CC(C(=O)N2CCn3c(nc(-c4ccc(F)cc4)c3Nc3ccc(Cl)c(F)c3)C2)CCN1 (centres unmarked) [Compound 337]
Second: O=C([C@@H]1Cc2ccccc2N1)N1CCn2c(nc(-c3ccc(F)cc3)c2Nc2ccc(Cl)c(F)c2)C1 [Compound 343]
The EC50 of the first is higher: greater than 10000 nM for the first, 7500 nM for the second.

First: O=C(Cc1ccc(F)c(C(F)(F)F)c1)N1CCn2c(nc(-c3ccc(F)cc3)c2Nc2ccc(Cl)c(F)c2)C1 [Compound 335]
Second: Cc1ccc(Nc2c(-c3ccc(F)cc3)nc3n2CCN(C(=O)C2CCCO2)C3)cc1 (centres unmarked) [Compound 200]
The EC50 of the first is 2.5-fold higher: 2300 nM for the first, 910 nM for the second. The second is the more potent here.

Work on `Cc1ccc(Nc2c(-c3ccc(F)cc3)nc3n2CCN(C(=O)[C@H]2CCC[C@@H]2O)C3)cc1` [Compound 105] yielded an EC50 of 850 nM.

Same assay, conditions: Plasmodium falciparum, 3D7, Erythrocyte, read-out: EC50 3D7 strain

With `Cc1ccc(Nc2c(-c3ccc(F)cc3)nc3n2CCN(C(=O)C(O)(c2ccccc2)c2ccccc2)C3)cc1` [Compound 112] the EC50 was 1430 nM.

These compounds were tested on W2 strain (assay: parasite proliferation assay in infected red blood cells (SYBR Green I), W2 strain). Conditions: Erythrocyte.
Assay type: cell-based
From the text: as §1

Compared with `CN[C@H](CC(C)C)C(=O)N1CCn2c(nc(-c3ccc(F)cc3)c2Nc2ccc(C)cc2)C1` [Compound 377], `Cc1ccc(Nc2c(-c3ccc(F)cc3)nc3n2CCN(C(=O)[C@H](O)C(C)C)C3)cc1` [Compound 205] is 140-fold lower in EC50: 574 nM for the first, 4 nM for the second. The second is the more potent here.
